# In US12435046B2, “Alkynyl quinazoline compounds” (Black Diamond Therapeutics, Inc., priority 2019, dated 2025):
# pIC50: −log10 of the molar value.
# Key:
# Type in all cases: cell-based
# Conditions in all cases: Table A; BaF3 cells, 3 days
# HER2 YVMA = biological target: T1, HER2 YVMA (Homo sapiens, UniProt P04626, INS775YVMA); test: BaF3 cell proliferation assay (CellTiterGlo), HER2 YVMA
# T1 construct: expressed in transfected cells; host or cells: BaF3 (murine pro-B) cells
# EGFR V3 = biological target: T2, EGFR V3 (Homo sapiens, UniProt P00533, DELINS30-297G); test: BaF3 cell proliferation assay (CellTiterGlo), EGFR V3
# T2 construct: expressed in transfected cells; host or cells: BaF3 (murine pro-B) cells, retroviral transduction with pMXs-IRES-Blasticidin
# Experimental: (§1) Retroviral Production: EGFR mutants were subcloned into pMXs-IRES-Blasticidin (RTV-016, Cell Biolabs, San Diego, CA). Retroviral expression vector retrovirus was produced by transient transfection of HEK 293T cells with the retroviral EGFR mutant expression vector pMXs-IRES-Blasticidin (RTV-016, Cell Biolabs), pCMV-Gag-Pol vector and pCMV-VSV-G-Envelope vector. Briefly, HEK 293T/17 cells were plated in 100 mm collagen coated plate (354450, Corning Life Sciences, Tewksbury, MA) (4×10^5 per plate) and incubated overnight. The next day, retroviral plasmids (3 ng of EGFR mutant, 1.0 ng of pCMV-Gag-Pol and 0.5 ng pCMV-VSV-G) were mixed in 500 n1 of Optimem (31985, Life Technologies). The mixture was incubated at room temperature for 5 min and then added to Optimem containing transfection reagent Lipofectamine (11668, Invitrogen) and incubated for 20 minutes. Mixture was then added dropwise to HEK 293T cells. The next day the medium was replaced with fresh culture medium and retrovirus was harvested @ 24 and 48 hrs.
# (§2) Generation of EGFR mutant stable cell lines: BaF3 cells (1.5E5 cells) were infected with 1 ml of viral supernatant supplemented with 8 ng/ml polybrene by centrifuging for 30 min at 1000 rpm. Cells were placed in a 37° C. incubator overnight. Cells were then spun for 5 minutes to pellet the cells. Supernatant was removed and cells re-infected a fresh 1 ml of viral supernatant supplemented with 8 ng/ml polybrene by centrifuging for 30 min at 1000 rpm. Cells were placed in 37° C. incubator overnight. Cells were then maintained in RPMI containing 10% Heat Inactivated FBS, 2% L-glutamine containing 10 ng/ml IL-3. After 48 hours cells were selected for retroviral infection in 10 […] for one week. Blasticidin resistant populations were washed twice in phosphate buffered saline before plating in media lacking IL-3 to select for IL-3 independent growth.
# (§3) Assay for cell proliferation: BaF3 cell lines were resuspended at 1.3E5 c/ml in RPMI containing 10% Heat Inactivated FBS, 2% L-glutamine and 1% Pen/Strep and dispensed in triplicate (17.5E4 c/well) into 96 well plates. To determine the effect of drug on cell proliferation, cells incubated for 3 days in the presence of vehicle control or test drug at varying concentrations. Inhibition of cell growth was determined by luminescent quantification of intracellular ATP content using CellTiterGlo (Promega), according to the protocol provided by the manufacturer. Comparison of cell number on day 0 versus 72 hours post drug treatment was used to plot dose-response curves. The number of viable cells was determined and normalized to vehicle-treated controls. Inhibition of proliferation, relative to vehicle-treated controls was expressed as a fraction of 1 and graphed using PRISM® software (Graphpad Software, San Diego, CA). EC50 values were determined with the same application.
# HER2 S310F = biological target: T3, HER2 S310F (Homo sapiens, UniProt P04626, S310F); test: BaF3 cell proliferation assay (CellTiterGlo), HER2 S310F
# T3 construct: expressed in transfected cells; host or cells: BaF3 (murine pro-B) cells
# EGFR wt = biological target: T4, EGFR wt (Homo sapiens, UniProt P00533); test: BaF3 cell proliferation assay (CellTiterGlo), EGFR wt
# T4 construct: expressed in transfected cells; host or cells: BaF3 (murine pro-B) cells, retroviral transduction with pMXs-IRES-Blasticidin
# Experimental: as §1, §2, §3
# T3 sequence (P04626 23-1255 S310F): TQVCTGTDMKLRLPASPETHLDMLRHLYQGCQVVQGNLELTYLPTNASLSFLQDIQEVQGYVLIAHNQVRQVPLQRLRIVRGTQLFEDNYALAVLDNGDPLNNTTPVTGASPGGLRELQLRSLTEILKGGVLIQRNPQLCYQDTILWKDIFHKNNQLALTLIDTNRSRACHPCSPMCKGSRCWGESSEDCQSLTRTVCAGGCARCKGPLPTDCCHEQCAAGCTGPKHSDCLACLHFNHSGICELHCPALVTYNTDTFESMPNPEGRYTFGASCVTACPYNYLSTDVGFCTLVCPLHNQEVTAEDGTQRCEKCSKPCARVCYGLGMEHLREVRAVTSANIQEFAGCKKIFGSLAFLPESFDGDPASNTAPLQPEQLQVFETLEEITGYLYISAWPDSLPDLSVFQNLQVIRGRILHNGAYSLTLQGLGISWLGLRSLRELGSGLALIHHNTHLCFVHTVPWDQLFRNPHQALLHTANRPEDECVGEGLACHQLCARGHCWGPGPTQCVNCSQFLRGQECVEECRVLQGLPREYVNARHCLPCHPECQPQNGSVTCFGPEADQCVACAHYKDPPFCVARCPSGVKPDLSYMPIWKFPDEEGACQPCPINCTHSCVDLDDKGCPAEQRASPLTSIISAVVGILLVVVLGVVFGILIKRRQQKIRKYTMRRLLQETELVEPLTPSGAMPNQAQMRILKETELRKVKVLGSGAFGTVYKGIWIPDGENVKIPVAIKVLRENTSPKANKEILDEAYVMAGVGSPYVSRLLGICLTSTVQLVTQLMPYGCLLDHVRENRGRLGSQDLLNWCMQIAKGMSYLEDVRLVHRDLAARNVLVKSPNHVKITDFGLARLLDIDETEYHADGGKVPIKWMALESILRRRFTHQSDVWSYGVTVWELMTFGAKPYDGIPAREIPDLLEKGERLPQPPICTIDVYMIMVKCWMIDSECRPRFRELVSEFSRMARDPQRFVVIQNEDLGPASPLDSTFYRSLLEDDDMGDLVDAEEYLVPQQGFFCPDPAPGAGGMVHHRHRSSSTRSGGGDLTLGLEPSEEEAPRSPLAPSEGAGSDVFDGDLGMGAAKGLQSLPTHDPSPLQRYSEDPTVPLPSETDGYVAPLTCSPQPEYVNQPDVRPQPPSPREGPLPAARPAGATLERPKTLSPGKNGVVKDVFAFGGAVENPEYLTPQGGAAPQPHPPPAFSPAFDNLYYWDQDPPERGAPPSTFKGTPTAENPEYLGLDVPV
# T2 sequence (P00533 with tags, fused parts or gaps DELINS30-297G): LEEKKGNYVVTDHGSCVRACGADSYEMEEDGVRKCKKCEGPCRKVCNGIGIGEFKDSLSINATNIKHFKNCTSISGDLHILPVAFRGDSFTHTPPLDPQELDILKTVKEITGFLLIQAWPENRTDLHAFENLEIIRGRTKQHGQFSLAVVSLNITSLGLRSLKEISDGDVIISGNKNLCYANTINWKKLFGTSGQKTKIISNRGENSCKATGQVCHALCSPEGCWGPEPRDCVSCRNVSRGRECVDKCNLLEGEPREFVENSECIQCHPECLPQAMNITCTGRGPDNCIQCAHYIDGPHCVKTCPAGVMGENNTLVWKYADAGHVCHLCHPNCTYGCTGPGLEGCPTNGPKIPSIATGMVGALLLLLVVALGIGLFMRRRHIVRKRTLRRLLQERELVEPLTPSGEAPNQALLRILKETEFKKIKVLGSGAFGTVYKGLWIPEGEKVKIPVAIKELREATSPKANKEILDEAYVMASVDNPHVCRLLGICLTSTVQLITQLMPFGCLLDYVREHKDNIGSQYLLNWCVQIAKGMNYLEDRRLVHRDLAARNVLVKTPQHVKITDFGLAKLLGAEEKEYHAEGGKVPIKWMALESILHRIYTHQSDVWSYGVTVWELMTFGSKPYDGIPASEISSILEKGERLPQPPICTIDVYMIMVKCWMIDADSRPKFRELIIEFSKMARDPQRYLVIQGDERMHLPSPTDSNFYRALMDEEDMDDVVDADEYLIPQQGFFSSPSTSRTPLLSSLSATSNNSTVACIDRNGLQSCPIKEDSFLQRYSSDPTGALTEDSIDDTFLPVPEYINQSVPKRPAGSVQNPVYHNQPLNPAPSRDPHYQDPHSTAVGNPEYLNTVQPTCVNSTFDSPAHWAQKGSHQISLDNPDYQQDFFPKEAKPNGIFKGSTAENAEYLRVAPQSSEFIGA
# T4 sequence (P00533 25-1210): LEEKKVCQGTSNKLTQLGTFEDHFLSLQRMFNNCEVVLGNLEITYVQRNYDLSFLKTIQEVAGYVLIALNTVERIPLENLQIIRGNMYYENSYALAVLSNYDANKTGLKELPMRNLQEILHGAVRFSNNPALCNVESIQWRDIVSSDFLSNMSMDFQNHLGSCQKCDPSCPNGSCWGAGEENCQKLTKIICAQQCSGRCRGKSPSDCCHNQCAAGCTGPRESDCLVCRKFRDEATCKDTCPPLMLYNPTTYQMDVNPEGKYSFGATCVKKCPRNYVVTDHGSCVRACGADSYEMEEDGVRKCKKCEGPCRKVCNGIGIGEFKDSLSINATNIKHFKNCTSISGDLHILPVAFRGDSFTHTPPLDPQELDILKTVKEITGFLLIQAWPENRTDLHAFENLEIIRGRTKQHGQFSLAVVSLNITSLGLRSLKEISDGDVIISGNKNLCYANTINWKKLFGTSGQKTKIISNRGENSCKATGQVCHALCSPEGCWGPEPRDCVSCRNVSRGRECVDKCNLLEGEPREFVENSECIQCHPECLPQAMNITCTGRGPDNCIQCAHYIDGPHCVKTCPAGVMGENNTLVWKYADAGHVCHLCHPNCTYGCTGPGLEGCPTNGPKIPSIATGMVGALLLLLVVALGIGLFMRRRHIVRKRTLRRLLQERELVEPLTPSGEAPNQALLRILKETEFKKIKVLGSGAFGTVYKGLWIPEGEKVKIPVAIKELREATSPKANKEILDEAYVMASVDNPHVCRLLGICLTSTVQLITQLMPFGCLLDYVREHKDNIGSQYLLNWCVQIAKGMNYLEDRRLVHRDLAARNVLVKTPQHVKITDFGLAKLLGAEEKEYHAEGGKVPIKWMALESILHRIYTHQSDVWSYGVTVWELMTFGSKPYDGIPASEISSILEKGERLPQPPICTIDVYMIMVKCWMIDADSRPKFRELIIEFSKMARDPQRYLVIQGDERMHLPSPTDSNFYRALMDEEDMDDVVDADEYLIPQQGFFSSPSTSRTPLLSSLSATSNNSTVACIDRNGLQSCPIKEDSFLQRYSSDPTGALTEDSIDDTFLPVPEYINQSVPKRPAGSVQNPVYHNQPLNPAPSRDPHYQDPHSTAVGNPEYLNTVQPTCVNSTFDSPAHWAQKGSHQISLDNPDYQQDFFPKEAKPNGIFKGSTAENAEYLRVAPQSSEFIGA
# T1 sequence (P04626 with tags, fused parts or gaps INS775YVMA): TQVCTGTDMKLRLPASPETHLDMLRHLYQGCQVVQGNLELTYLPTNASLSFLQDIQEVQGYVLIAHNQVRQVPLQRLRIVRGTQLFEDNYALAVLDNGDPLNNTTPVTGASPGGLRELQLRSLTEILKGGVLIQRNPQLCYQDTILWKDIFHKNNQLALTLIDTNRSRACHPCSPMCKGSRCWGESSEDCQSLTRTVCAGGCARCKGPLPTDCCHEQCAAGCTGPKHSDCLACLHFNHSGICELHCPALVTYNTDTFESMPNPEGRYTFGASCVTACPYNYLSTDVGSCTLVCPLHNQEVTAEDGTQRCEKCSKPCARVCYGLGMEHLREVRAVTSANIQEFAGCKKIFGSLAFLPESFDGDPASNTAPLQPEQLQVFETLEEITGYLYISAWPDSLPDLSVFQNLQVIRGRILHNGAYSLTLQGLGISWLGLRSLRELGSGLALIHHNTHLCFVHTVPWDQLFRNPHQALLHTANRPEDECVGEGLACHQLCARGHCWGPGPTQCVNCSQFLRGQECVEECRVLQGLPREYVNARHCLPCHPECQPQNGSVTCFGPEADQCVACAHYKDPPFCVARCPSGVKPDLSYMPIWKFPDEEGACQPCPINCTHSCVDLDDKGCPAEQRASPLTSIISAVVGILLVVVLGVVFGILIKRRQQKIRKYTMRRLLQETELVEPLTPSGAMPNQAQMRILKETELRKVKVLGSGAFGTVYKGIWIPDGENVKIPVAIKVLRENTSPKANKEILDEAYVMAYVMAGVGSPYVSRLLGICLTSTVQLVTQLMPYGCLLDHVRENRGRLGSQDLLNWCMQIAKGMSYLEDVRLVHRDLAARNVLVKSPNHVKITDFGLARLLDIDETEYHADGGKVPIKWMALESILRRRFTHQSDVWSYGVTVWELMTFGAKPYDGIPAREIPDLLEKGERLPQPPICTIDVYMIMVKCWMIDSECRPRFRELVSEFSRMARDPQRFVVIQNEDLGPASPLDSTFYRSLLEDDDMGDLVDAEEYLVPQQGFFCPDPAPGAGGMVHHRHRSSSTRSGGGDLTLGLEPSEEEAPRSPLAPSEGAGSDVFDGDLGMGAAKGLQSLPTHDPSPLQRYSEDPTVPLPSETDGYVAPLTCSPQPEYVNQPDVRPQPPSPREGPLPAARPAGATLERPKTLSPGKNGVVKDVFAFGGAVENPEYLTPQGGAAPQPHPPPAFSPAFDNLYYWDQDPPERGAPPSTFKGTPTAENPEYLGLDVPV
Structure (SMILES),pIC50 (HER2 YVMA),pIC50 (EGFR V3),pIC50 (HER2 S310F),pIC50 (EGFR wt)
"C=CC(=O)Nc1cc2c(Nc3ccc(OCc4ccccn4)c(Cl)c3)ncnc2cc1C#CC1(C)CCCN(C)C1 (centres unmarked) [Compound 67, N-(4-((3-chloro-4-(pyridin-2-ylmethoxy)phenyl)amino)-7-((1,3-dimethylpiperidin-3-yl)ethynyl)quinazolin-6-yl)acrylamide]",6.30 to 7.00,7.00 to 7.30,≥ 7.30,< 6.30
"C=CC(=O)Nc1cc2c(Nc3ccc(OCc4cccc(F)c4)c(Cl)c3)ncnc2cc1C#CC1(C)CCOC1 (centres unmarked) [Compound 61, N-(4-((3-chloro-4-((3-fluorobenzyl)oxy)-phenyl)amino)-7-((3-methyltetrahydrofuran-3-yl)ethynyl)quinazolin-6-yl)acrylamide]",6.30 to 7.00,6.30 to 7.00,7.00 to 7.30,< 6.30
"C=C(CO)C(=O)Nc1cc2c(Nc3cccc(Cl)c3F)ncnc2cc1C#C[C@@]12C[C@@H]1CN(C)C2 [Compound 26, N-[4-(3-chloro-2-fluoro-anilino)-7-[2-[(1R,5S)-3-methyl-3-azabicyclo[3.1.0]hexan-1-yl]ethynyl]quinazolin-6-yl]-2-(hydroxymethyl)prop-2-enamide]",6.30 to 7.00,≥ 7.30,7.00 to 7.30,7.00 to 7.30
"C=CC(=O)Nc1cc2c(Nc3cccc(Cl)c3F)ncnc2cc1C#C[C@@]12C[C@@H]1CN(C1COC1)C2 [Compound 50, N-(4-((3-chloro-2-fluorophenyl)amino)-7-(((1R,5S)-3-(oxetan-3-yl)-3-azabicyclo[3.1.0]hexan-1-yl)ethynyl)quinazolin-6-yl)acrylamide]",6.30 to 7.00,≥ 7.30,7.00 to 7.30,7.00 to 7.30
"C=CC(=O)Nc1cc2c(Nc3cccc(Cl)c3F)ncnc2cc1C#C[C@@]1(C)CCCN1C [Compound 6, (R)—N-(4-((3-chloro-2-fluorophenyl)amino)-7-((1,2-dimethylpyrrolidin-2-yl)-ethynyl)quinazolin-6-yl)acrylamide]",< 6.30,7.00 to 7.30,6.30 to 7.00,< 6.30
"CN1CC[C@](C)(C#Cc2cc3ncnc(Nc4cccc(Cl)c4F)c3cc2NC(=O)/C=C/CN2CCOCC2)C1 [Compound No. 81, (R,E)-N-(4-((3-chloro-2-fluorophenyl)amino)-7-((1,3-dimethylpyrrolidin-3-yl)ethynyl)quinazolin-6-yl)-4-morpholinobut-2-enamide]",< 6.30,6.30 to 7.00,< 6.30,–
"C=CC(=O)Nc1cc2c(Nc3cccc(Cl)c3F)ncnc2cc1C#CC12CC1CN(C1COC1)C2 (centres unmarked) [Compound 64, N-(4-((3-chloro-2-fluorophenyl)amino)-7-((3-(oxetan-3-yl)-3-azabicyclo[3.1.0]hexan-1-yl)ethynyl)quinazolin-6-yl)acrylamide]",6.30 to 7.00,≥ 7.30,6.30 to 7.00,6.30 to 7.00
"C=CC(=O)Nc1cc2c(Nc3cccc(Cl)c3F)ncnc2cc1C#C[C@@]1(C)CCCN(C)C1 [Compound 54, (R)—N-(4-((3-chloro-2-fluorophenyl)amino)-7-((1,3-dimethylpiperidin-3-yl)ethynyl)quinazolin-6-yl)acrylamide]",< 6.30,7.00 to 7.30,6.30 to 7.00,< 6.30
"CN(C)C/C=C/C(=O)Nc1cc2c(Nc3cccc(Cl)c3F)ncnc2cc1C#C[C@@]1(C)CCN(C)C1 [Compound 24, (R,E)-N-(4-((3-chloro-2-fluorophenyl)amino)-7-((1,3-dimethylpyrrolidin-3-yl)ethynyl)quinazolin-6-yl)-4-(dimethylamino)but-2-enamide]",–,7.00 to 7.30,6.30 to 7.00,< 6.30

# Now from value to compound:
pIC50 (HER2 YVMA),pIC50 (EGFR V3),pIC50 (HER2 S310F),pIC50 (EGFR wt),Structure (SMILES)
< 6.30,≥ 7.30,6.30 to 7.00,6.30 to 7.00,"C=CC(=O)Nc1cc2c(Nc3cccc(Cl)c3F)ncnc2cc1C#CC1(C)CCN(C2COC2)C1 (centres unmarked) [Compound 69, N-(4-((3-chloro-2-fluorophenyl)amino)-7-((3-methyl-1-(oxetan-3-yl)pyrrolidin-3-yl)ethynyl)quinazolin-6-yl)acrylamide]"
6.30 to 7.00,≥ 7.30,≥ 7.30,≥ 7.30,"C=CC(=O)Nc1cc2c(Nc3cccc(Cl)c3F)ncnc2cc1C#C[C@@H]1[C@H]2CN(C)C[C@@H]12 [Compound 78, N-(4-((3-chloro-2-fluorophenyl)amino)-7-(((1R,5S,6s)-3-methyl-3-azabicyclo[3.1.0]hexan-6-yl)ethynyl)quinazolin-6-yl)acrylamide]"
< 6.30,≥ 7.30,6.30 to 7.00,6.30 to 7.00,"C=CC(=O)Nc1cc2c(Nc3cccc(Cl)c3F)ncnc2cc1C#CC1(C)CCN(CCF)C1 (centres unmarked) [Compound 56, N-(4-((3-chloro-2-fluorophenyl)amino)-7-((1-(2-fluoroethyl)-3-methylpyrrolidin-3-yl)ethynyl)quinazolin-6-yl)acrylamide]"
6.30 to 7.00,≥ 7.30,≥ 7.30,7.00 to 7.30,"C=CC(=O)Nc1cc2c(Nc3cccc(Cl)c3F)ncnc2cc1C#C[C@@]12C[C@@H]1CN(C)C2 [Compound 51, N-(4-((3-chloro-2-fluorophenyl)amino)-7-(((1R,5S)-3-methyl-3-azabicyclo[3.1.0]hexan-1-yl)ethynyl)quinazolin-6-yl)acrylamide]"
< 6.30,≥ 7.30,6.30 to 7.00,6.30 to 7.00,"C=CC(=O)Nc1cc2c(Nc3cccc(Cl)c3F)ncnc2cc1C#C[C@]1(F)CCN(C)C1 [Compound 46, N-{4-[(3-chloro-2-fluorophenyl)amino]-7-{2-[(3R)-3-fluoro-1-methyl-pyrrolidin-3-yl]ethynyl}quinazolin-6-yl}prop-2-enamide]"
6.30 to 7.00,≥ 7.30,7.00 to 7.30,6.30 to 7.00,"C=CC(=O)Nc1cc2c(Nc3cccc(Cl)c3F)ncnc2cc1C#CC12CC1CN(C)C2 (centres unmarked) [Compound 65, N-(4-((3-chloro-2-fluorophenyl)amino)-7-((3-methyl-3-azabicyclo[3.1.0]hexan-1-yl)ethynyl)quinazolin-6-yl)acrylamide]"
< 6.30,≥ 7.30,6.30 to 7.00,6.30 to 7.00,"C=CC(=O)Nc1cc2c(Nc3cccc(Cl)c3F)ncnc2cc1C#CC12CCC(CC1)N2C [Compound 10, N-(4-((3-chloro-2-fluorophenyl)amino)-7-((7-methyl-7-azabicyclo[2.2.1]heptan-1-yl)ethynyl)quinazolin-6-yl)acrylamide]"
7.00 to 7.30,≥ 7.30,≥ 7.30,< 6.30,"C=CC(=O)Nc1cc2c(Nc3ccc(OCc4ccccn4)c(Cl)c3)ncnc2cc1C#CC1(C)CCN(C)CC1 [Compound 72, N-(4-((3-chloro-4-(pyridin-2-ylmethoxy)phenyl)amino)-7-((1,4-dimethylpiperidin-4-yl)ethynyl)quinazolin-6-yl)acrylamide]"
< 6.30,≥ 7.30,6.30 to 7.00,6.30 to 7.00,"C=CC(=O)Nc1cc2c(Nc3cccc(Cl)c3F)ncnc2cc1C#C[C@@]1(F)CCN(C)C1 [Compound 45, N-{4-[(3-chloro-2-fluorophenyl)amino]-7-{2-[(3S)-3-fluoro-1-methylpyrrolidin-3-yl]ethynyl}quinazolin-6-yl}prop-2-enamide]"
7.00 to 7.30,≥ 7.30,≥ 7.30,< 6.30,"C=CC(=O)Nc1cc2c(Nc3ccc(OCc4ccccn4)c(Cl)c3)ncnc2cc1C#C[C@@]1(C)CCN(C)C1 [Compound 14, (R)—N-(4-((3-chloro-4-(pyridin-2-ylmethoxy)phenyl)amino)-7-((1,3-dimethylpyrrolidin-3-yl)ethynyl)quinazolin-6-yl)acrylamide]"
